Source: US20240300933A1, “SALT AND CRYSTAL FORMS OF AN HMOX1 INDUCER” (MITOBRIDGE INC., priority 2021, published 2024)
≈ marks a conversion by molar mass, not a printed value.

Assays:
[1] = Thermodynamic solubility in water and bio-media (SGF, FaSSIF, FeSSIF) at 37° C.; type: physicochemical; conditions: for pH / FC (Form Change) / solubility at 1 h / solubility at 4 h / solubility at 24 h: 37° C.; for pH: filtrate of supernatant; for solubility at 1 h / solubility at 4 h / solubility at 24 h: thermodynamic from solid
Description: Specifically, about 40 mg samples (calculated with freebase) were added to 4.0 mL of each buffer. After shaking at 100 rpm at 37° C. for 1/4/24 hour(s), about 1.0 mL of each suspension was centrifuged for 5 minutes. The solids were analyzed by XRPD for crystal form, and the filtrates of supernatants were detected by HPLC for solubility and by pH meter for pH value.

[2] = Hygroscopicity by dynamic vapor sorption (DVS); conditions: for weight gain: DVS, 25° C., at 90% RH; for hygroscopicity compared with the citrate salt, in words: monophosphate
Description: Dynamic vapor sorption (DVS) was performed with an ADVENTURE series DVS at 25° C. under nitrogen blow. Approximately 30 milligrams of material was used.

[3] = PK study in Cynomolgus macaques, PO single dose; type: in vivo, Cynomolgus macaques (Macaca fascicularis); conditions: for exposure (AUC) compared to the free form, in words: Cynomolgus monkeys, monophosphate; for AUC(0-inf) / AUC(0-t) / Cmax: male, cynomolgus monkey, blood
Description: A PK Study of Crystalline form of 1:1 compound (I) Phosphate and compound (I) crystal form was conducted in Cynomolgus macaques (Cynomolgus non-human primates; Macaca fascicularis). […] Blood samples were collected at 0.25, 0.5, 1, 2, 4, 6, 8 and 24 hours, and were analyzed to determine Cmax and exposure (AUC).

[4] = pKa of the freebase form; type: physicochemical; conditions: basic
[5] = simulated gastric fluid, SGF, 1 Hr
[6] = simulated gastric fluid, SGF, 4 Hrs
[7] = simulated gastric fluid, SGF, 24 Hrs
[8] = Cynomolgus macaques, 10 mg/Kg PO single dose
[9] = Cynomolgus macaques, 100 mg/Kg PO single dose

Q: With `Cn1c(Nc2nc3ccccc3o2)nc2cc(C(=O)NCCOCCO)ccc21.O=P(O)(O)O` [1:1 Compound (I) Phosphate, 2-[(1,3-benzoxazol-2-yl)amino]-N-[2-(2-hydroxyethoxy)ethyl]-1-methyl-1H-benzimidazole-5-carboxamide monophosphate] as the molecule, how does the “solubility compared to Compound (I), in words” value ([1]; FaSSIF and SGF) read?
A: The value was “improved solubility”.

Q: And the pH ([1]; FaSSIF, 1 Hr)?
A: Its pH is 2.37.

Q: What about the “FC (Form Change)” value ([1]; FaSSIF, 1 Hr, solid by XRPD) of the same molecule?
A: The value was “Yes”.

Q: What about the pH ([1]; FaSSIF, 4 Hrs) of the same molecule?
A: Its pH is 2.37.

Q: And the pH ([1]; FaSSIF, 24 Hrs)?
A: The pH was 2.36.

Q: And the pH ([1]; FeSSIF, 1 Hr)?
A: The pH was 4.06.

Q: What about the “FC (Form Change)” value ([1]; FeSSIF, 1 Hr, solid by XRPD) of the same molecule?
A: The value was “Yes”.

Q: And the pH ([1]; FeSSIF, 4 Hrs)?
A: Its pH is 4.21.

Q: What about the pH ([1]; FeSSIF, 24 Hrs) of the same molecule?
A: Its pH is 4.31.

Q: What about the “FC (Form Change)” value ([1]; SGF, 1 Hr) of the same molecule?
A: The value was “Clear”.

Q: And the pH ([1]; SGF, 1 Hr)?
A: Its pH is 1.36.

Q: And the “FC (Form Change)” value ([1]; SGF, 4 Hrs)?
A: The value was “Clear”.

Q: And the pH ([1]; SGF, 4 Hrs)?
A: The pH was 1.37.

Q: And the “FC (Form Change)” value ([1]; SGF, 24 Hrs)?
A: Its value is “Clear”.

Q: What about the pH ([1]; SGF, 24 Hrs) of the same molecule?
A: Its pH is 1.41.

Q: What about the solubility at 1 h [1, 5] of the same molecule?
A: Its solubility at 1 h is > 25900 µg/mL.

Q: And the solubility at 4 h [1, 6]?
A: Its solubility at 4 h is > 28400 µg/mL.

Q: What about the solubility at 24 h [1, 7] of the same molecule?
A: Its solubility at 24 h is > 28400 µg/mL.

Q: And the solubility at 1 h ([1]; FaSSIF, 1 Hr)?
A: Its solubility at 1 h is 190 µg/mL.

Q: And the solubility at 4 h ([1]; FaSSIF, 4 Hrs)?
A: The solubility at 4 h was 180 µg/mL.

Q: What about the solubility at 24 h ([1]; FaSSIF, 24 Hrs) of the same molecule?
A: The solubility at 24 h was 70 µg/mL.

Q: And the solubility at 1 h ([1]; FeSSIF, 1 Hr)?
A: Its solubility at 1 h is 1400 µg/mL.

Q: What about the solubility at 4 h ([1]; FeSSIF, 4 Hrs) of the same molecule?
A: The solubility at 4 h was 770 µg/mL.

Q: What about the solubility at 24 h ([1]; FeSSIF, 24 Hrs) of the same molecule?
A: The solubility at 24 h was 390 µg/mL.

Q: What about the solubility at 1 h ([1]; water, 1 Hr) of the same molecule?
A: The solubility at 1 h was 4390 µg/mL.

Q: And the solubility at 4 h ([1]; water, 4 Hrs)?
A: Its solubility at 4 h is 3230 µg/mL.

Q: And the solubility at 24 h ([1]; water, 24 Hrs)?
A: The solubility at 24 h was 2060 µg/mL.

Q: And the “solubility compared to the free form, in words” value ([1]; water and bio-relevant media)?
A: Its value is “significant solubility improvement”.

Q: What about the pH ([1]; water, 1 Hr) of the same molecule?
A: The pH was 2.05.

Q: What about the “FC (Form Change)” value ([1]; water, 1 Hr, solid by XRPD) of the same molecule?
A: Its value is “Yes”.

Q: What about the pH ([1]; water, 4 Hrs) of the same molecule?
A: The pH was 2.04.

Q: And the pH ([1]; water, 24 Hrs)?
A: The pH was 1.97.

Q: And the weight gain [2]?
A: The weight gain was 0.835%.

Q: And the “hygroscopicity compared with the citrate salt, in words” value ([2]; listed as phosphate salt)?
A: Its value is “lower hygroscopicity”.

Q: What about the “hygroscopicity compared with the citrate salt, in words” value [2] of the same molecule?
A: The value was “low hygroscopicity”.

Q: And the “higher exposure compared to free form Compound (I)” value ([3]; Cynomolgus macaques, 10 and 100 mpk oral dose)?
A: The value was 1.5 times.

Q: And the “Cmax compared to the free form, in words” value ([3]; Cynomolgus macaques, Table 7)?
A: The value was “roughly double”.

Q: What about the “exposure (AUC) compared to the free form, in words” value ([3]; 10 and 100 mpk oral dose, listed as phosphate salt) of the same molecule?
A: Its value is “roughly double”.

Q: What about the “exposure (AUC) compared to the free form, in words” value ([3]; 10 and 100 mpk oral dose) of the same molecule?
A: Its value is “roughly twice the exposure”.

Q: And the AUC(0-inf) [3, 8]?
A: Its AUC(0-inf) is 3590 ng·h/mL.

Q: What about the AUC(0-t) [3, 8] of the same molecule?
A: The AUC(0-t) was 3480 ng·h/mL.

Q: What about the Cmax [3, 8] of the same molecule?
A: Its Cmax is 322 ng/mL.

Q: And the AUC(0-inf) [3, 9]?
A: The AUC(0-inf) was 9330 ng·h/mL.

Q: What about the AUC(0-t) [3, 9] of the same molecule?
A: Its AUC(0-t) is 7580 ng·h/mL.

Q: What about the Cmax [3, 9] of the same molecule?
A: The Cmax was 723 ng/mL.

Q: Which pH ([1]; FaSSIF, 1 Hr) does the source give for `Cn1c(Nc2nc3ccccc3o2)nc2cc(C(=O)NCCOCCO)ccc21` [Compound (I), 2-[(1,3-benzoxazol-2-yl)amino]-N-[2-(2-hydroxyethoxy)ethyl]-1-methyl-1H-benzimidazole-5-carboxamide] here?
A: The pH was 6.30.

Q: And the “FC (Form Change)” value ([1]; FaSSIF, 1 Hr, solid by XRPD)?
A: The value was “No”.

Q: And the pH ([1]; FaSSIF, 4 Hrs)?
A: Its pH is 6.35.

Q: And the “FC (Form Change)” value ([1]; FaSSIF, 4 Hrs, solid by XRPD)?
A: The value was “No”.

Q: And the pH ([1]; FaSSIF, 24 Hrs)?
A: Its pH is 5.99.

Q: And the “FC (Form Change)” value ([1]; FaSSIF, 24 Hrs, solid by XRPD)?
A: The value was “No”.

Q: And the pH ([1]; FeSSIF, 1 Hr)?
A: The pH was 4.78.

Q: What about the “FC (Form Change)” value ([1]; FeSSIF, 1 Hr, solid by XRPD) of the same molecule?
A: Its value is “No”.

Q: What about the pH ([1]; FeSSIF, 4 Hrs) of the same molecule?
A: Its pH is 4.73.

Q: What about the “FC (Form Change)” value ([1]; FeSSIF, 4 Hrs, solid by XRPD) of the same molecule?
A: The value was “No”.

Q: And the pH ([1]; FeSSIF, 24 Hrs)?
A: Its pH is 4.81.

Q: What about the “FC (Form Change)” value ([1]; FeSSIF, 24 Hrs, solid by XRPD) of the same molecule?
A: Its value is “No”.

Q: And the “FC (Form Change)” value ([1]; SGF, 1 Hr)?
A: Its value is “No”.

Q: And the pH ([1]; SGF, 1 Hr)?
A: Its pH is 2.34.

Q: And the “FC (Form Change)” value ([1]; SGF, 4 Hrs)?
A: Its value is “No”.

Q: And the pH ([1]; SGF, 4 Hrs)?
A: Its pH is 2.16.

Q: What about the “FC (Form Change)” value ([1]; SGF, 24 Hrs) of the same molecule?
A: The value was “No”.

Q: What about the pH ([1]; SGF, 24 Hrs) of the same molecule?
A: The pH was 2.51.

Q: And the solubility at 1 h [1, 5]?
A: The solubility at 1 h was 7040 µg/mL (≈ 17.8 mM).

Q: What about the solubility at 4 h [1, 6] of the same molecule?
A: The solubility at 4 h was 6860 µg/mL (≈ 17.3 mM).

Q: What about the solubility at 24 h [1, 7] of the same molecule?
A: Its solubility at 24 h is 7080 µg/mL (≈ 17.9 mM).

Q: What about the pH ([1]; water, 1 Hr) of the same molecule?
A: The pH was 5.69.

Q: What about the “FC (Form Change)” value ([1]; water, 1 Hr, solid by XRPD) of the same molecule?
A: The value was “No”.

Q: And the pH ([1]; water, 4 Hrs)?
A: Its pH is 5.07.

Q: And the “FC (Form Change)” value ([1]; water, 4 Hrs, solid by XRPD)?
A: Its value is “No”.

Q: And the pH ([1]; water, 24 Hrs)?
A: Its pH is 5.95.

Q: And the “FC (Form Change)” value ([1]; water, 24 Hrs, solid by XRPD)?
A: The value was “No”.

Q: And the pKa [4]?
A: The pKa was ~2.75.

Q: What about the AUC(0-inf) [3, 8] of the same molecule?
A: Its AUC(0-inf) is 2030 ng·h/mL.

Q: What about the AUC(0-t) [3, 8] of the same molecule?
A: Its AUC(0-t) is 1920 ng·h/mL.

Q: What about the Cmax [3, 8] of the same molecule?
A: The Cmax was 164 ng/mL.

Q: What about the AUC(0-inf) [3, 9] of the same molecule?
A: The AUC(0-inf) was 4740 ng·h/mL.

Q: What about the AUC(0-t) [3, 9] of the same molecule?
A: Its AUC(0-t) is 4080 ng·h/mL.

Q: And the Cmax [3, 9]?
A: Its Cmax is 350 ng/mL.

Q: With Citrate as the molecule, how does the weight gain [2] read?
A: The weight gain was 3.223%.
